Reference: patent US8129371B2, “Thienopyrimidine and pyrazolopyrimidine compounds and their use as mTOR kinase and PI3 kinase inhibitors” (Wyeth LLC, priority 2007, dated 2012)
Where two headings read alike, the source gives them in different places.

Columns and labels:
[1] = test system: prostate line LNCap; experiment: In vitro cell culture growth assay (MTS), LNCap; assay type: cell-based; settings: Homo sapiens, LNCaP, 72 h, LNCap cells, three days after drug treatment
Method in brief: (§1)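 Growth is reported as percent of vehicle-treated control grown in the same plate, with viability determined by metabolic conversion of MTS dye and absorbance read at 490 nm. Compounds were applied one day after plating and left for three days.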

[2] = molecular target: T1, Human mTOR (FLAG-TOR) (Homo sapiens, UniProt P42345); experiment: Human mTOR kinase assay with purified enzyme, DELFIA format; assay type: biochemical
T1 construct: FLAG
Method in brief: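 DELFIA readout: Eu-anti-P(T389)-S6K antibody (40 ng/mL, 1 h) on captured His6-S6K from the stopped reaction. Kinase step used purified FLAG-tagged human mTOR with test compound in HEPES (pH 7.4)/MnCl2/DTT buffer, 2 h at room temperature (linear 1–6 h), terminated by EDTA/EGTA.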

[3] = test system: breast line MDA468; experiment: In vitro cell culture growth assay (MTS), MDA468; assay type: cell-based; settings: Homo sapiens, 72 h, MDA468 cells, three days after drug treatment
Method in brief: as §1

[4] = molecular target: T2, PI3K (Homo sapiens, UniProt P48736); experiment: Fluorescence polarization assay for PI3K; assay type: biochemical; settings: read-out: PI3 Kinase γ IC50
T2 construct: PI3 Kinase γ IC50; other: PI3 Kinase γ; other: PI3 Kinase γ isoform, fluorescence polarization
T2 sequence (P48736 whole entry, canonical isoform): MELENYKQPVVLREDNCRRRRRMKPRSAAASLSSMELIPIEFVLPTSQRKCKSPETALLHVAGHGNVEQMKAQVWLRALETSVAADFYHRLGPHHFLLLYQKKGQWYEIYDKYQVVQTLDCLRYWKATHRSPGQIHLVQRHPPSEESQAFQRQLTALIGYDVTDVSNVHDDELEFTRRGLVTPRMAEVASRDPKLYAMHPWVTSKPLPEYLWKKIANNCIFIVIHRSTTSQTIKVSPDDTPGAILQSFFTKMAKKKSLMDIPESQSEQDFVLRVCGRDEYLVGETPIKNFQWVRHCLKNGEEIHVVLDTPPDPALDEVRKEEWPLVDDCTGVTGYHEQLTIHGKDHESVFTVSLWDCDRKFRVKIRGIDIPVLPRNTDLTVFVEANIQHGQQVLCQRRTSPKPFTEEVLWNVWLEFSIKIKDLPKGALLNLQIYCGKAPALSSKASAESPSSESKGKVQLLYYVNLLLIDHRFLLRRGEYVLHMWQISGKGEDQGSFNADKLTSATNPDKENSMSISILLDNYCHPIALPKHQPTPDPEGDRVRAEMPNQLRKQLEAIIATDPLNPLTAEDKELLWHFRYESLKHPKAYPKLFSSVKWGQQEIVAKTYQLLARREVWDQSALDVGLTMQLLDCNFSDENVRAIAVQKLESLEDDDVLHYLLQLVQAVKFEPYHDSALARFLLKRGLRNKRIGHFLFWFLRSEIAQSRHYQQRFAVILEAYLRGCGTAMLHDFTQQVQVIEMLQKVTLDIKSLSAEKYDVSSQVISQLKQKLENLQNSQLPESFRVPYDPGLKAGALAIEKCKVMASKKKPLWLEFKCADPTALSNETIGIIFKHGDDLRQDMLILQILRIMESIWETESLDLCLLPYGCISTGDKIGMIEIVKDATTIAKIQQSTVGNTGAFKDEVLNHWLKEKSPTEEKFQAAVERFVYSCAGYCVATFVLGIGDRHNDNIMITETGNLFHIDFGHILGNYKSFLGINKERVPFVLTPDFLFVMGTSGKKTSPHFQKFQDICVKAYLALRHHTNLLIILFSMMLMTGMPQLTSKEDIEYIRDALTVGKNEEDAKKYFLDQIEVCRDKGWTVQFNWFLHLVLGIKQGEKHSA
Method in brief: (§2)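 Fluorescence-polarization competition readout: after 30–60 min of PIP2/ATP turnover in 1% DMSO, a stop mix with GST-GRP (70 nM) and red probe (10 nM) was added.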

[5] = molecular target: T3, PI3K (Homo sapiens, UniProt P42336); experiment: Fluorescence polarization assay for PI3K; assay type: biochemical; settings: read-out: PI3 Kinase α IC50
T3 construct: PI3 Kinase α IC50; other: PI3 Kinase α; other: PI3 Kinase α isoform, fluorescence polarization
T3 sequence (P42336 whole entry, canonical isoform): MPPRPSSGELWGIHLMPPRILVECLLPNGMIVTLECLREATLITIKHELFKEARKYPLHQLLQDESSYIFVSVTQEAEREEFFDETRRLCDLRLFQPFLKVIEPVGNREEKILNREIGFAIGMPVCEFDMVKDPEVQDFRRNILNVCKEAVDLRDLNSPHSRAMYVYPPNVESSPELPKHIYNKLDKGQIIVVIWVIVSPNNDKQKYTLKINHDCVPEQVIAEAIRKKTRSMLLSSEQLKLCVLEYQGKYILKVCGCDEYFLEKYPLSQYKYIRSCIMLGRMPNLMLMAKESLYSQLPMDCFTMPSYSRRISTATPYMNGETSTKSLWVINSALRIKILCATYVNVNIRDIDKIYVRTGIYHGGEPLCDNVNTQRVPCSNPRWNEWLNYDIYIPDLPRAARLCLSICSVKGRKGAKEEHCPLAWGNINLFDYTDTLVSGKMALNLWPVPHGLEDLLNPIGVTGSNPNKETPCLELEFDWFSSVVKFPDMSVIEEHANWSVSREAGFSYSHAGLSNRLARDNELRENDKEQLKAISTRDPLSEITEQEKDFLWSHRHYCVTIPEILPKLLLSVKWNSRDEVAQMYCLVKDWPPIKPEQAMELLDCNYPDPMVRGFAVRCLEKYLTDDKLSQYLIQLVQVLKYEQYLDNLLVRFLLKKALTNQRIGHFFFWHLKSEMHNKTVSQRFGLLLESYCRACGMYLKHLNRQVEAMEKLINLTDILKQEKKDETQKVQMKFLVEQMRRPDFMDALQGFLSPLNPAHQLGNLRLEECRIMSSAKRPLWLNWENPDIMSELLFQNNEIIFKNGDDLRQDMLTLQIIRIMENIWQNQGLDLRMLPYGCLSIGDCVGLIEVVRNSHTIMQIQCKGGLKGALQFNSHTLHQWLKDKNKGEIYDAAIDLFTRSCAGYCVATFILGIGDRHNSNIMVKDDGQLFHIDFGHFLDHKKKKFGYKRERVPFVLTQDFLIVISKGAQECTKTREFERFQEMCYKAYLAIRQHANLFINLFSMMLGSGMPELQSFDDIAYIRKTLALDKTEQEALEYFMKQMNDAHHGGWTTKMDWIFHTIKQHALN
Method in brief: as §2

[6] = purified human mTOR enzyme, DELFIA format
[7] = PI3 Kinase γ isoform, fluorescence polarization
[8] = PI3 Kinase α isoform, fluorescence polarization

SMILES	IC50 [1]	IC50 [2, 6]	IC50 [4, 7]	IC50 [5, 8]	IC50 [2]	IC50 ([4]; PI3 Kinase γ)	IC50 ([5]; PI3 Kinase α)	IC50 [3]
CN1CCN(c2ccc(NC(=O)Nc3ccc(-c4nc(N5CC6CCC(C5)O6)c5cnn(C6CCC7(CCCO7)CC6)c5n4)cc3)cc2)CC1 (single isomer, unassigned) [Example 313, 1-[4-(4-methylpiperazin-1-yl)phenyl]-3-(4-{4-(8-oxa-3-azabicyclo[3.2.1]oct-3-yl)-1-[(5r,8r)-1-oxaspiro[4.5]dec-8-yl]-1H-pyrazolo[3,4-d]pyrimidin-6-yl}phenyl)urea]	1 nM	0.365 nM	1450 nM	581 nM	–	–	–	15 nM
O=C(Nc1ccncc1)Nc1ccc(-c2nc(N3CC4CCC(C3)O4)c3cnn(C4CCC5(CCCO5)CC4)c3n2)cc1 (single isomer, unassigned) [Example 312, 1-(4-{4-(8-oxa-3-azabicyclo[3.2.1]oct-3-yl)-1-[(5r,8r)-1-oxaspiro[4.5]dec-8-yl]-1H-pyrazolo[3,4-d]pyrimidin-6-yl}phenyl)-3-pyridin-4-ylurea]	1 nM	0.203 nM	2220 nM	353 nM	–	–	–	12 nM
CN1CCN(c2ccc(NC(=O)Nc3ccc(-c4nc(N5CC6CCC(C5)O6)c5cnn(CCO)c5n4)cc3)cn2)CC1 [Example 205, 1-{4-[1-(2-hydroxyethyl)-4-(8-oxa-3-azabicyclo[3.2.1]oct-3-yl)-1H-pyrazolo[3,4-d]pyrimidin-6-yl]phenyl}-3-[6-(4-methylpiperazin-1-yl)pyridin-3-yl]urea]	90 nM	–	–	–	1.7 nM	3570 nM	202 nM	80 nM
CCn1ncc2c(N3CC4CCC(C3)O4)nc(-c3ccc(NC(=O)Nc4ccc(N5CCN(C)CC5)nc4)cc3)nc21 [Example 185, 1-{4-[1-ethyl-4-(8-oxa-3-azabicyclo[3.2.1]oct-3-yl)-1H-pyrazolo[3,4-d]pyrimidin-6-yl]phenyl}-3-[6-(4-methylpiperazin-1-yl)pyridin-3-yl]urea]	< 1 nM	–	–	–	0.735 nM	2270 nM	196 nM	1 nM
O=C(Nc1ccc(CCO)cc1)Nc1ccc(-c2nc(N3CC4CCC(C3)O4)c3cnn(CCO)c3n2)cc1 [Example 202, 1-{4-[1-(2-hydroxyethyl)-4-(8-oxa-3-azabicyclo[3.2.1]oct-3-yl)-1H-pyrazolo[3,4-d]pyrimidin-6-yl]phenyl}-3-[4-(2-hydroxyethyl)phenyl]urea]	1 nM	–	–	–	0.215 nM	2160 nM	44 nM	4 nM
COC(=O)N1CCC(n2ncc3c(N4C5CCC4COC5)nc(-c4ccc(NC(=O)Nc5ccc(N6CCN(C)CC6)nc5)cc4)nc32)CC1 [Example 365, methyl 4-{6-[4-({[6-(4-methylpiperazin-1-yl)pyridin-3-yl]carbamoyl}amino)phenyl]-4-(3-oxa-8-azabicyclo[3.2.1]oct-8-yl)-1H-pyrazolo[3,4-d]pyrimidin-1-yl}piperidine-1-carboxylate]	4 nM	0.795 nM	4530 nM	2590 nM	–	–	–	12 nM
CNC(=O)Nc1ccc(-c2nc(N3CC4CCC(C3)O4)c3cnn(C4CCC(NCCO)CC4)c3n2)cc1 (stereo not shown) [Example 334, 1-{4-[1-{4-[(2-hydroxyethyl)amino]cyclohexyl}-4-(8-oxa-3-azabicyclo[3.2.1]oct-3-yl)-1H-pyrazolo[3,4-d]pyrimidin-6-yl]phenyl}-3-methylurea]	2960 nM	4.5 nM	3940 nM	434 nM	–	–	–	5200 nM
COC1CCC(n2ncc3c(N4CC5CCC(C4)O5)nc(-c4ccc(NC(=O)Nc5ccc(CO)cc5)cc4)nc32)CC1 (stereo not shown) [Example 308, 1-[4-(hydroxymethyl)phenyl]-3-{4-[1-(4-methoxycyclohexyl)-4-(8-oxa-3-azabicyclo[3.2.1]oct-3-yl)-1H-pyrazolo[3,4-d]pyrimidin-6-yl]phenyl}urea]	< 1 nM	0.08 nM	2720 nM	80 nM	–	–	–	< 1 nM
O=C(Nc1ccc(-c2nc(N3CC4CCC(C3)O4)c3cnn(CC(F)(F)F)c3n2)cc1)Nc1ccc(N2CCOCC2)cc1 [Example 251, 1-(4-morpholin-4-ylphenyl)-3-{4-[4-(8-oxa-3-azabicyclo[3.2.1]oct-3-yl)-1-(2,2,2-trifluoroethyl)-1H-pyrazolo[3,4-d]pyrimidin-6-yl]phenyl}urea]	< 1 nM	–	–	–	0.34 nM	> 10000 nM	1000 nM	< 1 nM

Second part, led by results:

IC50 [1]	IC50 [2, 6]	IC50 [4, 7]	IC50 [5, 8]	IC50 [2]	IC50 ([4]; PI3 Kinase γ)	IC50 ([5]; PI3 Kinase α)	SMILES	IC50 [3]
120 nM	0.445 nM	330 nM	8 nM	–	–	–	CS(=O)(=O)N1CCN(Cc2cc3nc(-c4ccc(NC(=O)Nc5ccncc5)cc4)nc(N4CC5CCC(C4)O5)c3s2)CC1 [Example 434, 1-{4-[6-{[4-(methylsulfonyl)piperazin-1-yl]methyl}-4-(8-oxa-3-azabicyclo[3.2.1]oct-3-yl)thieno[3,2-d]pyrimidin-2-yl]phenyl}-3-pyridin-4-ylurea]	180 nM
40 nM	0.71 nM	≥ 10000 nM	1360 nM	–	–	–	O=C(Nc1ccc(-c2nc(N3CC4CCC(C3)O4)c3sccc3n2)cc1)NC1CC1 [Example 410, 1-cyclopropyl-3-{4-[4-(8-oxa-3-azabicyclo[3.2.1]oct-3-yl)thieno[3,2-d]pyrimidin-2-yl]phenyl}urea]	780 nM
1 nM	0.33 nM	404 nM	705 nM	–	–	–	CNC(=O)Nc1ccc(-c2nc(N3CC4CCC(C3)O4)c3cnn([C@H]4CC[C@@H](OC)CC4)c3n2)cc1 (relative stereo) [Example 387, 1-{4-[1-(cis-4-methoxycyclohexyl)-4-(8-oxa-3-azabicyclo[3.2.1]oct-3-yl)-1H-pyrazolo[3,4-d]pyrimidin-6-yl]phenyl}-3-methylurea]	19 nM
87 nM	0.61 nM	> 10000 nM	825 nM	–	–	–	O=C(NCCF)Nc1ccc(-c2nc(N3CC4CCC(C3)O4)c3sccc3n2)cc1 [Example 408, 1-(2-fluoroethyl)-3-{4-[4-(8-oxa-3-azabicyclo[3.2.1]oct-3-yl)thieno[3,2-d]pyrimidin-2-yl]phenyl}urea]	530 nM
7200 nM	270 nM	> 10000 nM	4430 nM	–	–	–	Oc1ccc(Nc2nc(N3CC4CCC(C3)O4)c3sccc3n2)cc1 [Example 422, 4-{[4-(8-oxa-3-azabicyclo[3.2.1]oct-3-yl)thieno[3,2-d]pyrimidin-2-yl]amino}phenol]	31000 nM
100 nM	–	–	–	1.2 nM	> 10000 nM	1610 nM	CCn1ncc2c(N3CC4CCC(C3)O4)nc(-c3ccc(NC(=O)OCCO)cc3)nc21 [Example 45, 2-hydroxyethyl {4-[1-ethyl-4-(8-oxa-3-azabicyclo[3.2.1]oct-3-yl)-1H-pyrazolo[3,4-d]pyrimidin-6-yl]phenyl}carbamate]	270 nM
16 nM	–	–	–	0.47 nM	12000 nM	1250 nM	CCNC(=O)Nc1ccc(-c2nc(N3CC4CCC(C3)O4)c3cnn(CC)c3n2)cc1 [Example 41, 1-ethyl-3-{4-[1-ethyl-4-(8-oxa-3-azabicyclo[3.2.1]oct-3-yl)-1H-pyrazolo[3,4-d]pyrimidin-6-yl]phenyl}urea]	80 nM
2400 nM	–	–	–	26.5 nM	> 10000 nM	1390 nM	CCn1ncc2c(N3CC4CCC(C3)O4)nc(-c3ccc(NC(=O)NCCOCCN)cc3)nc21 [Example 225, 1-[2-(2-aminoethoxy)ethyl]-3-{4-[1-ethyl-4-(8-oxa-3-azabicyclo[3.2.1]oct-3-yl)-1H-pyrazolo[3,4-d]pyrimidin-6-yl]phenyl}urea]	4000 nM
1 nM	–	–	–	0.108 nM	440 nM	64 nM	Cn1ncc2c(N3CC4CCC(C3)O4)nc(-c3ccc(NC(=O)Nc4ccc(S(C)(=O)=O)cc4)cc3)nc21 [Example 239, 1-{4-[1-methyl-4-(8-oxa-3-azabicyclo[3.2.1]oct-3-yl)-1H-pyrazolo[3,4-d]pyrimidin-6-yl]phenyl}-3-[4-(methylsulfonyl)phenyl]urea]	4 nM
< 0.8 nM	–	–	–	0.16 nM	1120 nM	134 nM	CCn1ncc2c(N3CC4CCC(C3)O4)nc(-c3ccc(NC(=O)Nc4ccncc4)cc3)nc21 [Example 48, 1-{4-[1-ethyl-4-(8-oxa-3-azabicyclo[3.2.1]oct-3-yl)-1H-pyrazolo[3,4-d]pyrimidin-6-yl]phenyl}-3-pyridin-4-ylurea]	< 0.8 nM
790 nM	–	–	–	1.8 nM	9000 nM	2160 nM	CCNC(=O)Nc1ccc(-c2nc(N3CC4CCC(C3)O4)c3cnn(C4CCNCC4)c3n2)cc1 [Example 28, 1-ethyl-3-{4-[4-(8-oxa-3-azabicyclo[3.2.1]oct-3-yl)-1-piperidin-4-yl-1H-pyrazolo[3,4-d]pyrimidin-6-yl]phenyl}urea]	1300 nM
